The results in this text go back to patent US10702506B2, “Small molecule inhibitors of pendrin ion exchange and pharmaceutical compositions” (THE REGENTS OF THE UNIVERSITY OF CALIFORNIA, priority 2016, dated 2020).

pIC50: −log10 of the molar value.

A word on the inhibition: it is the change of the read-out against control, counted positive when it falls.

The target of assay [1] is T1, pendrin (Homo sapiens, UniProt O43511).
T1 sequence (O43511 1-780): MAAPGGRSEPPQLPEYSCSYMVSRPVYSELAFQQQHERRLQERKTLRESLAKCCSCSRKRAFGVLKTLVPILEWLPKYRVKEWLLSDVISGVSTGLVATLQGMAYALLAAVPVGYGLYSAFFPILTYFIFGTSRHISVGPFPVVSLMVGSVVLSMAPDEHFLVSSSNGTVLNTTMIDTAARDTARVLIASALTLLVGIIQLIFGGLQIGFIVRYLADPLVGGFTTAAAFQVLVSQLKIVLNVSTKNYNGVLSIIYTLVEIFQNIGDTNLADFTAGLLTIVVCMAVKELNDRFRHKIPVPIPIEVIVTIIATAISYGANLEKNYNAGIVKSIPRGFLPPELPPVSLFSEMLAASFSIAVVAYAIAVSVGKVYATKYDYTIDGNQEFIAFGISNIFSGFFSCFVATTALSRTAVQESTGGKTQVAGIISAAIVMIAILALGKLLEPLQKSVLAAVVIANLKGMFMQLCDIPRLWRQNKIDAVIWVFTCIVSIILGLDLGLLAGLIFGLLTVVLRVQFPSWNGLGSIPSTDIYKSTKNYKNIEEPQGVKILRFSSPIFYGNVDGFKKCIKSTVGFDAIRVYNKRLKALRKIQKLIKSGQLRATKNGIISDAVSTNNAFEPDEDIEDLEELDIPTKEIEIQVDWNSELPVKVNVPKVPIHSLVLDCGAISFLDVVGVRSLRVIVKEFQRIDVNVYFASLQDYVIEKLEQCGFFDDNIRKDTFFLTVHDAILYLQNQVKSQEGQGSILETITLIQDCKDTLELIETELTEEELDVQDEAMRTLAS
The assay is described as follows: YFP (EYFP-HIF) fluorescence quenching assay of pendrin-mediated Cl− exchange (SCN−, I−, NO3−) in FRT cells; high-throughput screen. Type of assay: cell-based. Also on record: expressed in transfected cells. Conditions: for inhibition at 25 µM: FRT, read-out: Inh. (%), percentage inhibition of human pendrin. Here is the method:
Fischer rat thyroid (FRT) cells were cultured in Kaign's modified Ham's F12 medium supplemented with 10% FBS, 2 mM L-glutamine, 100 U/ml penicillin, […], […] myo-inositol and […] ascorbic acid. For high-throughput screening, FRT cells were stably transfected with EYFP-H148Q/I152L/F46L (EYFP-HIF; in pcDNA3.1/Hygro (+)), isolated using 0.25 mg/ml hygromycin B, and then transfected with pcDNA3.1 (+) encoding human pendrin with clonal cell lines selected using 0.5 mg/ml G418.
High-throughput screening was performed using a semi-automated screening platform (Beckman, Fullerton, Calif.) configured as described. FRT cells expressing human pendrin and EYFP-HIF were plated in 96-well black-walled, clear-bottom tissue culture plates (Corning, Corning, N.Y.) at a density of 20,000 cells/well, and cultured to confluence over 48 h. For screening, plates were washed twice with PBS (in mM: 137 NaCl, 2.7 KCl, 1.1 KH2PO4, 8.1 Na2HPO4, 0.9 CaCl2), 0.5 MgCl2) prior to addition of 100 μl PBS containing test compounds. Screening was done with ˜36,000 compounds from ChemDiv (San Diego, Calif.), TimTec (Newark, Del.), and Asinex (Winston-Salem, N.C.). After 10 min incubation with test compound, plates were transferred to a Tecan Infinite M1000 plate reader (Tecan, Morrisville, N.C.) for fluorescence assay of pendrin activity. The assay duration was 10 s with initial fluorescence intensity recorded for 2 s prior to addition of 100 μl of NaSCN-substituted PBS (137 mM NaCl replaced with NaSCN). All assay plates contained negative controls (DMSO). In some experiments Cl^− exchange for I^− or NO3^− was measured similarly using NaI and NaNO3-substituted PBS. Control experiments to measure basal ion transport rates were done in FRT cells expressing EYFP-HIF without pendrin.
FRT cells were chosen for screening due to their low intrinsic permeability to anions that are transported by pendrin. As depicted in FIGS. 1A and 2A, pendrin activity was assayed from the kinetics of the halide-sensitive fluorescent protein EYFP-HIF in response to addition of a SCN^−-containing solution to drive pendrin-mediated Cl^−/SCN^−. Pendrin inhibition reduces the rate of EYFP-HIF quenching. PDSinh-A01 land PDSinh-C01 decreased pendrin-mediated Cl^−/SCN^− and Cl^−/I^− exchange in a concentration-dependent manner, as measured by YFP fluorescence quenching. […] Because the only previously-described pendrin inhibitor is the weakly active compound niflumic acid, no positive control was included in the screening plates.

The target of assay [2] is T1, pendrin. The assay is described as follows: BCECF cytoplasmic pH assay of pendrin-mediated Cl−/HCO3− exchange in pendrin-expressing FRT cells. Type of assay: cell-based. Also on record: expressed in transfected cells. The protocol:
Cytoplasmic pH (pHi) was measured to assay pendrin-mediated Cl^−/HCO3^− exchange in pendrin-expressing FRT cells and primary cell cultures using the pH-sensitive fluorescent probe BCECF. Cells were loaded for 20 min using 10 μM BCECF-AM (Invitrogen, Carlsbad, Calif.) in HCO3^−-containing buffer (in mM: 120 NaCl, 5 KCl, 1 CaCl2), 1 MgSO4, 10 glucose, 5 Hepes, 25 NaHCO3; pH 7.4) at 27° C. in a tissue culture incubator. Cells were washed and transferred to the stage of a TE2000 microscope (Nikon, Melville, N.Y.) equipped with a C9100 EM-CCD (Hamamatsu, San Jose, Calif.), XCite light source (Excelitas, Waltham, Mass.), Nikon 20×N.A. 0.75 S Fluor objective, Uniblitz shutter (Vincent Associates, Rochester, N.Y.), and filters for BCECF fluorescence (Chroma, Bellows Fall, Vt.), where they were purged with 95% O2/5% CO2. […] BCECF pH-sensitive fluorescence (490 nm excitation, 535 nm emission) was acquired at 0.5 Hz, with control experiments confirming that BCECF pH-insensitive fluorescence was not altered during exchange protocols. In some experiments pHi changes in the absence of HCO3^− were measured using buffers in which NaCl or Na gluconate replaced NaHCO3^−. To relate BCECF fluorescence to pH, a calibration curve over the quasi-linear range of BCECF sensitivity (pH 6.6-7.7) was generated as described. […]

Take `Cn1nc(COc2cccc(F)c2)c2c1CCN(C(=O)Nc1ccc(Cl)cc1)C2` [PDSinh-A01]: the pIC50 is around 5.10 on pendrin [1] (Cl−/I− exchange, read-out: IC50 for Cl−/I− exchange); around 5.30 on pendrin [1] (Cl−/NO3− exchange, read-out: IC50 for Cl−/NO3− exchange); around 5.05 on pendrin [1] (Cl−/SCN− exchange, read-out: IC50 for Cl−/SCN− exchange); around 5.60 on pendrin [2] (Cl−/HCO3− exchange, read-out: concentration giving fifty percent inhibition of Cl−/HCO3− exchange). The “time at which ~IC50 (half inhibition) was displayed, inhibition kinetics” value at pendrin [1] (Cl−/SCN− exchange, 10 μM added for indicated times) was found to be 5 min. Further, at pendrin [1], the inhibition at 25 µM was around 100%. Besides, at pendrin [1] (washout), the “reversibility of inhibition by washout” value is listed as “reversible”. The “inhibition of cytoplasmic alkalinization (Cl−/HCO3− exchange)” value against pendrin [2] (25 μM) is recorded as “strongly inhibited”.
For the compound `Cc1n[nH]c(-c2cc(S(=O)(=O)NC3CCCc4ccccc43)c(C)s2)c1C` (stereo not drawn) [PDSinh-C01], at pendrin [1], the inhibition at 25 µM stood at 83%.
